# Measured values taken from publication PMC6405842, “Identification of a novel scaffold for a small molecule GPR139 receptor agonist” (Scientific Reports, 2019).
# Where a chain is given by its changes, count along the chain named.
# Legend:
# Format in all cases: cell-based
# GPR139 F109A^3×33 = target: T1, GPR139 F109A^3×33 (Homo sapiens, UniProt Q6DWJ6, F109A); assay: Ca2+ mobilization on GPR139 mutant F109A
# T1 construct: myc (N); expressed in transfected cells
# T1 sequence (Q6DWJ6 1-353 F109A): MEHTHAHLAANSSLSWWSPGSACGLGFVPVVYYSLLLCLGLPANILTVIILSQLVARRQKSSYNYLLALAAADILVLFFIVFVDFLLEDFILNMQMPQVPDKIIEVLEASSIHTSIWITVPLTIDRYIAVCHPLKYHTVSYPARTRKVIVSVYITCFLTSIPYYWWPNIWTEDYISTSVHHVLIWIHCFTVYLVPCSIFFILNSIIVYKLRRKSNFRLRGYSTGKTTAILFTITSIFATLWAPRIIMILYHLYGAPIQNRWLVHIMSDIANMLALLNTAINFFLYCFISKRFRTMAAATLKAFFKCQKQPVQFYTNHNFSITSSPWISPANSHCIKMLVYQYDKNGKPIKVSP
# Method: (§1) Figure 4 Ca^2+ mobilization concentration-response curves of AC4 on GPR139 wild-type (WT) and mutants. Data is shown from a representative experiment (mean ± S.D.) out of three independent experiments performed in duplicate. Data is normalized to the Ca^2+ response of buffer (0%) and 100 μM AC4 (100%) on myc-GPR139(WT). Residue numbering in superscript is according to GPCRdb numbering system.
# (§2) The mutational studies were performed as previously described.
# GPR139 W241H^6×48 = target: T2, GPR139 W241H^6×48 (Homo sapiens, UniProt Q6DWJ6, W241H); assay: Ca2+ mobilization on GPR139 mutant W241H
# T2 construct: myc (N); expressed in transfected cells
# T2 sequence (Q6DWJ6 1-353 W241H): T1 sequence (Q6DWJ6 1-353 F109A) with A109F, W241H
# Method: as §1, §2
# GPR139 N271A^7×38 = target: T3, GPR139 N271A^7×38 (Homo sapiens, UniProt Q6DWJ6, N271A); assay: Ca2+ mobilization on GPR139 mutant N271A
# T3 construct: myc (N); expressed in transfected cells
# T3 sequence (Q6DWJ6 1-353 N271A): T1 sequence (Q6DWJ6 1-353 F109A) with A109F, N271A
# Method: as §1, §2
smiles,measurement,setting,value
O=C(O)C1CC=CCC1c1nnc(CSc2ccc(Cl)cc2)o1 (stereo not shown) [AC4],Ca2+ response,GPR139 F109A^3×33,no measurable Ca^2+ response
same,Emax,"GPR139 W241H^6×48; mutant W241H, n = 3",37 ± 3%
same,fold change of EC50 on W241H versus WT,GPR139 W241H^6×48; printed as lower EC50 than on WT,12 fold
same,Ca2+ response,GPR139 N271A^7×38,no measurable Ca^2+ response
